Literature values, collected in patent US20250066696A1, “A STABLE BLEACH COMPOSITION” (Conopco Inc., d/b/a UNILEVER, priority 2021, published 2025).

For `CCCCC(C)CCC(=O)O` (stereo not shown) [4-methyl octanoic acid], the pKa is listed as 5.23.
